“And” between values parts separate entries of the source, which are not always exact repeats. Equal entries are not always repeated.
Columns and labels:
Assay type in all cases: in vivo
Meloidogyne incognita = assay: Vine field trial, number of nematodes in soil after foliar (I-2) or drench (imidacloprid) application; details: for Activity against Meloidogyne incognita, number of nematodes, 0 d: vines Thompson Seedless, prior to treatment, (I-2) SC 240 12.5 fl oz per 605 plants foliar, imidacloprid SC 550 14 fl oz drench; for Activity against Meloidogyne incognita, number of nematodes, 30 d / Activity against Meloidogyne incognita, number of nematodes, 60 d: vines, (I-2) 12.5 fl oz per 605 plants foliar (2 applications, 32 d interval), imidacloprid 14 fl oz drench; for Activity against Meloidogyne incognita, number of nematodes, 30 d: 30 days after first treatment; for Activity against Meloidogyne incognita, number of nematodes, 60 d: 60 days after first treatment
Method: (§1) In 5 replications, in each case 15 vines of the cultivar “Thompson Seedless 1948” are treated against soil-dwelling nematodes using a fogger. Here, a tank mix of the active compound (I-2) (SC 240) is applied after foliar application at the stated application rates with 0.25% of the adjuvant Activator 90, in comparison to imidacloprid (SC 550) after drench application by micro-irrigation injection. The water application rate is 75 gallons per acre=605 plants. Two applications of active compound (I-2) are carried out at an interval of 32 days.
(§2) Evaluation is carried out prior to the treatment and 30 days and 60 days after the first treatment by counting the number of nematodes in 500 g of soil.

Mesocriconema xenoplax = assay: as above; details: vines, (I-2) 12.5 fl oz per 605 plants foliar, imidacloprid 14 fl oz drench; for Activity against Mesocriconema xenoplax, number of nematodes, 30 d: 30 days after first treatment; for Activity against Mesocriconema xenoplax, number of nematodes, 60 d: 60 days after first treatment; for Activity against Mesocriconema xenoplax, number of nematodes, 0 d: prior to treatment
Method: as §1, §2

Pratylenchus sp. = assay: as above; details: vines, (I-2) 12.5 fl oz per 605 plants foliar, imidacloprid 14 fl oz drench; for Activity against Pratylenchus sp., number of nematodes, 30 d: 30 days after first treatment; for Activity against Pratylenchus sp., number of nematodes, 60 d: 60 days after first treatment; for Activity against Pratylenchus sp., number of nematodes, 0 d: prior to treatment
Method: as §1, §2

[1] = system: Tylenchulus semipenetrans; assay: Foliar application of (I-2) to citrus in pots for control of Tylenchulus semipenetrans; details: individual trees
Method: Foliar Application of (I-2) to Citrus in Pots for Control of Tylenchulus semipenetrans
Treatments: 15 trees sprayed with (I-2=Movento), 15 trees sprayed with water (presample each pot); 25 mL/tree
Add Tylenchulus semipenetrans larvae to all pots. The following day take trees out of greenhouse. Cover top of pot to exclude spray from soil. (I-2) (SC 240) is sprayed in a concentration of 2.6 ml plus 2.5 ml adjuvant MSO (methylated seed oil), (100% active w/v, added to the spray solution at 0.25% v/v) per liter sprac solution. Spray canopy from two sides of trees to runoff with a 2 gallon “Sure Spray” pump sprayer (Chapin Mfg.) using a nozzle that delivers a cone shape spray pattern. Allow material to dry before returning plants to greenhouse. Repeat in 14 days.
For this citrus nematode trial, 5-year old Volkamer lemon seedlings are infested with T. semipenetrans obtained from the field and maintained in the greenhouse (25-32° C.) for use in pesticide trials. Trees used in the experiment are not treated with nematicidal compounds. The seedlings are growing in a 50:50 mixture of Astatula sand (97% sand) and Pro-mix potting mixture in rectangular pots (10×10×30 cm). Trees are irrigated normally, but receive no fertilizer or pesticide treatments other than (I-2) during the experiment. Effects on citrus nematode are evaluated by soil sampling 30 days and 60 days after treatment.
Tylenchulus semipenetrans raw data (juvenile and male nematodes per […] soil. Pi is initial population before treatment, Pf is final population at one and two months post treatment).

Meloidogyne arenaria = assay: Tomato pot trial, root-knot nematode galling index and eggs per root system; details: for Galling index: 78 d after first treatment, mean; for Appearance of root system (galls, egg masses, rot): visual, at harvest
Method: The experiment is carried out in a shade house at a temperature of around 78 F (76-80 F). The experiment is conduced in a complete randomize design with seven treatments and six replications. 6 inch pots are filled with 1,500 g of steam pasteurized (194 F for 2:30 h) field soil per pot and a 4 weeks old tomato cv. Rutgers transplant is added. The soil is an Arredondo fine sand with ca. 92% sand and 1% om. The soil is taken from a site with no history of root-knot nematode infestation.
The first preventive treatments of Vydate CLV and (I-2) (SC 240; adjuvant: Dyne-Amic (a blend of nonionic and organosilicone surfactants and MSO), 99% active w/v, added 0.25% v/v) are applied as foliar spray. Fosthiazate 900 is applied as a soil drench in 40 gallons water per acre. The second preventive application of Vydate and (I-2) are sprayed over foliage 7 days after l^st treatment. The soil is inoculated by adding 5,000 eggs/pot of Meloidogyne arenaria one day after the 2nd treatment. The curative treatments of Vydate and (I-2) are applied as a foliar spray on 21 and 28 days after inoculation with Meloidogyne arenaria.
All (I-2) and Vydate treatments are applied in 40 gallons of water/acre by a CO2 pressurized sprayer with a single 8003 VS TeeJet noozle. The tomato plants for each treatment are lined up in a row with the spray directed over their foliage until noticeable drip.
78 days after the 1st treatment the plants are harvested. Each root system is evaluated for the percentage of root-knot nematode galling and eggs per root system. A 1 to 6 scale is used for estimating the number galls per root system as follows: 1=no galls on the root system; 2=10%; 3=11 to 30%; 4=31 to 70%; 5=71 to 90%; 6=100% root system galled. Following the determination of percentage of galling the roots are processed in a bleach solution to dissolve away the gelatinous matrix surrounding the eggs. Individual eggs are collection on a 500 mesh sieve and poured into a counting dish for determining their numbers.

[2] = preventive treatment, tomato cv. Rutgers, scale 1 to 6 (1 = no galls, 6 = 100% of root system galled)
[3] = preventive treatment, tomato, 5,000 eggs/pot inoculated

| Structure (SMILES) | Activity against Meloidogyne incognita, number of nematodes, 0 d (Meloidogyne incognita) | Activity against Meloidogyne incognita, number of nematodes, 30 d (Meloidogyne incognita) | Activity against Meloidogyne incognita, number of nematodes, 60 d (Meloidogyne incognita) | Activity against Mesocriconema xenoplax, number of nematodes, 30 d (Mesocriconema xenoplax) | Activity against Mesocriconema xenoplax, number of nematodes, 60 d (Mesocriconema xenoplax) | Activity against Mesocriconema xenoplax, number of nematodes, 0 d (Mesocriconema xenoplax) | Activity against Pratylenchus sp., number of nematodes, 30 d (Pratylenchus sp.) | Activity against Pratylenchus sp., number of nematodes, 60 d (Pratylenchus sp.) | Activity against Pratylenchus sp., number of nematodes, 0 d (Pratylenchus sp.) | Treat Pi (initial population before treatment) ([1]; Volkamer lemon seedlings in pots, before treatment) | Treat Pf (final population one month post treatment) ([1]; (I-2) SC 240 2.6 ml/l plus MSO foliar, repeated after 14 days, one month post treatment) | Treat Pf2 (final population two months post treatment) ([1]; (I-2) SC 240 2.6 ml/l plus MSO foliar, repeated after 14 days, two months post treatment) | Number of eggs/root system 78 d after first treatment (Meloidogyne arenaria; curative treatment (21 and 28 days after inoculation), tomato) | Galling index (Meloidogyne arenaria; curative treatment (21 and 28 days after inoculation), tomato, scale 1 to 6) | Appearance of root system (galls, egg masses, rot) (Meloidogyne arenaria; curative treatment) | Galling index (Meloidogyne arenaria; [2]) | Number of eggs/root system 78 d after first treatment (Meloidogyne arenaria; [3]) | Appearance of root system (galls, egg masses, rot) (Meloidogyne arenaria; preventive treatment) |
| --- | --- | --- | --- | --- | --- | --- | --- | --- | --- | --- | --- | --- | --- | --- | --- | --- | --- | --- |
| O=[N+]([O-])NC1=NCCN1Cc1ccc(Cl)nc1 [Imidacloprid, reference compound] | 267 nematodes in 500 g of soil | 171 nematodes in 500 g of soil | 188 nematodes in 500 g of soil | 808.4 nematodes in 500 g of soil | 958.46 nematodes in 500 g of soil | 1863 nematodes in 500 g of soil | 320 nematodes in 500 g of soil | 319.6 nematodes in 500 g of soil | 406 nematodes in 500 g of soil |  |  |  |  |  |  |  |  |  |
| CCOC(=O)OC1=C(c2cc(C)ccc2C)C(=O)N[C@]12CC[C@@H](OC)CC2 [(I-2)] | 312 nematodes in 500 g of soil | 140.8 nematodes in 500 g of soil | 178.8 nematodes in 500 g of soil | 861.2 nematodes in 500 g of soil | 942.8 nematodes in 500 g of soil | 1817 nematodes in 500 g of soil | 371.2 nematodes in 500 g of soil | 454 nematodes in 500 g of soil | 826 nematodes in 500 g of soil | 2412.5 juvenile and male nematodes per 100 cm^2 soil and 2100.0 juvenile and male nematodes per 100 cm^2 soil and 1700.0 juvenile and male nematodes per 100 cm^2 soil and 9237.5 juvenile and male nematodes per 100 cm^2 soil and 4180.0 juvenile and male nematodes per 100 cm^2 soil and 400.0 juvenile and male nematodes per 100 cm^2 soil and 4250.0 juvenile and male nematodes per 100 cm^2 soil (2×) and 1625.0 juvenile and male nematodes per 100 cm^2 soil and 125.0 juvenile and male nematodes per 100 cm^2 soil (2×) and 2190.0 juvenile and male nematodes per 100 cm^2 soil and 210.0 juvenile and male nematodes per 100 cm^2 soil and 2490.0 juvenile and male nematodes per 100 cm^2 soil and 250.0 juvenile and male nematodes per 100 cm^2 soil | 168.83 juvenile and male nematodes per 100 cm^2 soil and 519.74 juvenile and 534.25 juvenile and 1440.00 juvenile and 2753.33 juvenile and 336.84 juvenile and 708.33 juvenile and 638.16 juvenile and 87.21 juvenile and 1803.37 juvenile and 1402.78 juvenile and 60.81 juvenile and 1448.86 juvenile and 86.21 juvenile and 54.35 juvenile | 181.82 juvenile and male nematodes per 100 cm^2 soil and 380.95 juvenile and 338.71 juvenile and 1207.55 juvenile and 7807.69 juvenile and 347.46 juvenile and 1908.33 juvenile and 4122.22 juvenile and 175.44 juvenile and 1409.84 juvenile and 3205.36 juvenile and 92.59 juvenile and 1481.13 juvenile and 551.02 juvenile and 531.25 juvenile | 141,000 eggs/root system | 4.5 | little darkening or rotting appearance | 6.0 | 421,600 eggs/root system | numerous egg masses and coalesced galls |
| CCOP(=O)(SC(C)CC)N1CCSC1=O (stereo not drawn) [Fosthiazate, reference compound] |  |  |  |  |  |  |  |  |  |  |  |  |  |  |  | 5.3 | 453,500 eggs/root system | darkened decaying roots with numerous galls and egg masses |

From patent US20100311801A1, “USE OF TETRAMIC ACID DERIVATIVES FOR CONTROLLING NEMATODES” (priority 2007, published 2010)
